The values below come from patent publication US8999940B2 (Ipsen Pharma S.A.S., priority 2008, dated 2015).

As a reminder, the Ki is a measure of affinity in units of concentration, obtained from inhibition or displacement.

The target of data set [1] is T1, human recombinant GIP receptor (Homo sapiens, UniProt P48546).
T1 construct: expressed in transfected cells; host or cells: CHO-K1 clonal cells (membrane preparation)
T1 sequence (P48546 22-466): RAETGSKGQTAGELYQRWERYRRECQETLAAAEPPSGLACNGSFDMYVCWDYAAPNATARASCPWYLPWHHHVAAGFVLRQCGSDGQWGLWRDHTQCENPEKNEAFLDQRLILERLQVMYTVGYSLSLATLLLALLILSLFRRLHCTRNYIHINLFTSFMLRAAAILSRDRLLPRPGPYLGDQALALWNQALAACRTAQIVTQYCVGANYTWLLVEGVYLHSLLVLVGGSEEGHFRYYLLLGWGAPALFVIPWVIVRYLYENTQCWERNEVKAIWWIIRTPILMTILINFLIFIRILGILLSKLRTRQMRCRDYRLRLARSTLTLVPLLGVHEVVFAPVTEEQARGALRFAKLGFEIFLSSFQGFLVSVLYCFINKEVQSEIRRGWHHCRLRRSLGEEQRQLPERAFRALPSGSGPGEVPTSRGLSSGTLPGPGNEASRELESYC
The data set can be described thus: In vitro hGIP receptor binding assay. The protocol: A. In Vitro hGIP Receptor Binding Assay […] The incubations were terminated by rapid filtration through GF/C filters (pre-soaked in 0.5% polyethylenimine) using a Brandel filtration manifold. Each tube and filter were then washed three times with 5-ml aliquots of ice-cold buffer.

Data set [2] is described as follows: Human plasma half-life assay. To be noted: 37° C., LC-MS, read-out: Human Plasma T½ (converted). The data set is classed as in vitro ADME. As to the method:
(§1) B. Human and Rat Plasma Half-Life Assay
(§2) 50 μl was removed at various times, like at 0, 1, 2, 3, 4, 8, 24, 32, 48, 56, 72 hours, mixed with 5 μl formic acid and 150 μL acetonitrile in a microcentrifuge tube, vertexed, and centrifuged for 10 minutes at 10 K rpm. The supernatant was transferred to an injection vial and analyzed by LC-MS. The LC-MS system consisted of an API4000 mass spectrometer with an ESI probe. Positive ion mode and full scan detection were used. HPLC separation was carried out on a Luna 3μ. C8 (2), 2×30 mm column with a gradient from 90% A to 90% B in 10 minutes at a flow rate of 0.3 ml/min. Buffer A was 1% formic acid in water and buffer B was 1% formic acid acetonitrile.

The nature of data set [3]: Rat plasma half-life assay. To be noted: 37° C., LC-MS, read-out: Rat Plasma T½ (converted). The data set is classed as in vitro ADME. The protocol: as §1, §2

Where a SMILES comes first, the peptide text is derived from it. Where no end group is shown, it is not given here. [ ]: non-standard residue; d: D form. The star is where a group is joined. Tyr(3-OMe) = COc1cc(C[C@H](N)C(=O)O)ccc1O; Desaminotyrosyl = O=C(CCc1ccc(O)cc1)*; Nle = CCCC[C@H](N)C(=O)O; Ac5c = NC1(C(=O)O)CCCC1; Aib = CC(C)(N)C(=O)O

Consider `CC[C@H](C)[C@H](NC(=O)[C@H](CCCCN)NC(=O)[C@H](CC(=O)O)NC(=O)[C@H](CCSC)NC(=O)[C@H](C)NC(=O)[C@@H](NC(=O)C1(NC(=O)[C@H](Cc2ccc(O)cc2)NC(=O)[C@H](CC(=O)O)NC(=O)[C@H](CO)NC(=O)[C@@H](NC(=O)[C@H](Cc2ccccc2)NC(=O)[C@@H](NC(=O)CNC(=O)[C@H](CCC(=O)O)NC(=O)C(C)(C)NC(=O)[C@@H](N)Cc2ccc(OC)cc2)[C@@H](C)O)[C@@H](C)CC)CCCC1)[C@@H](C)CC)C(=O)N[C@@H](Cc1c[nH]cn1)C(=O)N[C@@H](CCC(N)=O)C(=O)N[C@@H](CCC(N)=O)C(=O)N[C@@H](CC(=O)O)C(=O)N[C@@H](Cc1ccccc1)C(=O)N[C@H](C(=O)N[C@@H](CC(N)=O)C(=O)N[C@@H](Cc1c[nH]c2ccccc12)C(=O)N[C@@H](CC(C)C)C(=O)N[C@@H](CC(C)C)C(=O)N[C@@H](C)C(=O)N[C@@H](CCC(N)=O)C(=O)N[C@@H](CCCCN)C(=O)NCC(=O)N[C@@H](CCCCN)C(=O)N[C@@H](CCCCN)C(=O)N[C@@H](CC(N)=O)C(=O)N[C@@H](CC(=O)O)C(=O)N[C@@H](Cc1c[nH]c2ccccc12)C(=O)N[C@@H](CCCCN)C(=O)N[C@@H](Cc1c[nH]cn1)C(=O)N[C@@H](CC(N)=O)C(=O)N[C@H](C(=O)NC1(C(=O)N[C@@H](CCC(N)=O)C(=O)O)CCCC1)[C@@H](C)CC)C(C)C` [Example 31, [Tyr(Me)^1, Aib^2, A5c^11, 41]hGIP(1-42)-OH], for which, in data set [1], the inhibitory constant (Ki) is 4.5 nM. The half-life at 0.1 mg/ml in data set [2] was 34.8 h; in data set [3] it was 9.7 h.
Taken in the same sequence, the figures for `CCCC[C@H](NC(=O)[C@H](C)NC(=O)[C@@H](NC(=O)C1(NC(=O)[C@H](Cc2ccc(O)cc2)NC(=O)[C@H](CC(=O)O)NC(=O)[C@H](CO)NC(=O)[C@@H](NC(=O)[C@H](Cc2ccccc2)NC(=O)[C@@H](NC(=O)CNC(=O)[C@H](CCC(=O)O)NC(=O)C(C)(C)NC(=O)[C@@H](N)Cc2ccc(CN)cc2)[C@@H](C)O)[C@@H](C)CC)CCCC1)[C@@H](C)CC)C(=O)N[C@@H](CC(=O)O)C(=O)N[C@@H](CCCCN)C(=O)N[C@H](C(=O)N[C@@H](Cc1c[nH]cn1)C(=O)N[C@@H](CCC(N)=O)C(=O)N[C@@H](CCC(N)=O)C(=O)N[C@@H](CC(=O)O)C(=O)N[C@@H](Cc1ccccc1)C(=O)N[C@H](C(=O)N[C@@H](CC(N)=O)C(=O)N[C@@H](Cc1c[nH]c2ccccc12)C(=O)N[C@@H](CC(C)C)C(=O)N[C@@H](CC(C)C)C(=O)N[C@@H](C)C(=O)N[C@@H](CCC(N)=O)C(=O)N[C@@H](CCCCN)C(=O)NCC(=O)N[C@@H](CCCCN)C(=O)N[C@@H](CCCCN)C(=O)N[C@@H](CC(N)=O)C(=O)N[C@@H](CC(=O)O)C(=O)N[C@@H](Cc1c[nH]c2ccccc12)C(=O)N[C@@H](CCCCN)C(=O)N[C@@H](Cc1c[nH]cn1)C(=O)N[C@@H](CC(N)=O)C(=O)N[C@H](C(=O)N[C@H](C(=O)N[C@@H](CCC(N)=O)C(=O)O)[C@@H](C)O)[C@@H](C)CC)C(C)C)[C@@H](C)CC` [Example 21, (4NH2CH2-Phe^1, Aib^2, A5c^11, Nle^14)hGIP(1-42)-OH] were 95 nM, over 74 h and 6 h.
For `CC[C@H](C)[C@H](NC(=O)[C@H](CCCCN)NC(=O)[C@H](CC(=O)O)NC(=O)[C@H](CCSC)NC(=O)[C@H](C)NC(=O)[C@@H](NC(=O)C1(NC(=O)[C@H](Cc2ccc(O)cc2)NC(=O)[C@H](CC(=O)O)NC(=O)[C@H](CO)NC(=O)[C@@H](NC(=O)[C@H](Cc2ccccc2)NC(=O)[C@@H](NC(=O)CNC(=O)[C@H](CCC(=O)O)NC(=O)C(C)(C)NC(=O)[C@@H](N)Cc2ccc(F)cc2)[C@@H](C)O)[C@@H](C)CC)CCCC1)[C@@H](C)CC)C(=O)N[C@@H](Cc1c[nH]cn1)C(=O)N[C@@H](CCC(N)=O)C(=O)N[C@@H](CCC(N)=O)C(=O)N[C@@H](CC(=O)O)C(=O)N[C@@H](Cc1ccccc1)C(=O)N[C@H](C(=O)N[C@@H](CC(N)=O)C(=O)N[C@@H](Cc1c[nH]c2ccccc12)C(=O)N[C@@H](CC(C)C)C(=O)N[C@@H](CC(C)C)C(=O)N[C@@H](C)C(=O)N[C@@H](CCC(N)=O)C(=O)N[C@@H](CCCCN)C(=O)NCC(=O)N[C@@H](CCCCN)C(=O)N[C@@H](CCCCN)C(=O)N[C@@H](CC(N)=O)C(=O)N[C@@H](CC(=O)O)C(=O)N[C@@H](Cc1c[nH]c2ccccc12)C(=O)N[C@@H](CCCCN)C(=O)N[C@@H](Cc1c[nH]cn1)C(=O)N[C@@H](CC(N)=O)C(=O)N[C@H](C(=O)NC1(C(=O)N[C@@H](CCC(N)=O)C(=O)O)CCCC1)[C@@H](C)CC)C(C)C` [Example 32, (4F-Phe^1, Aib^2, A5c^11, 41)hGIP(1-42)-OH], the inhibition constant Ki in data set [1] came out at 5.82 nM. The half-life at 0.1 mg/ml is 23.9 h in data set [2] and over 61 h in data set [3].
Taken in the same sequence, the figures for `CC[C@H](C)[C@H](NC(=O)[C@H](CCCCN)NC(=O)[C@H](CC(=O)O)NC(=O)[C@H](CCSC)NC(=O)[C@H](C)NC(=O)[C@@H](NC(=O)C1(NC(=O)[C@H](Cc2ccc(O)cc2)NC(=O)[C@H](CC(=O)O)NC(=O)[C@H](CO)NC(=O)[C@@H](NC(=O)[C@H](Cc2ccccc2)NC(=O)[C@@H](NC(=O)CNC(=O)[C@H](CCC(=O)O)NC(=O)C(C)(C)NC(=O)[C@@H](N)Cc2cccnc2)[C@@H](C)O)[C@@H](C)CC)CCCC1)[C@@H](C)CC)C(=O)N[C@@H](Cc1c[nH]cn1)C(=O)N[C@@H](CCC(N)=O)C(=O)N[C@@H](CCC(N)=O)C(=O)N[C@@H](CC(=O)O)C(=O)N[C@@H](Cc1ccccc1)C(=O)N[C@H](C(=O)N[C@@H](CC(N)=O)C(=O)N[C@@H](Cc1c[nH]c2ccccc12)C(=O)N[C@@H](CC(C)C)C(=O)N[C@@H](CC(C)C)C(=O)N[C@@H](C)C(=O)N[C@@H](CCC(N)=O)C(=O)N[C@@H](CCCCN)C(=O)NCC(=O)N[C@@H](CCCCN)C(=O)N[C@@H](CCCCN)C(=O)N[C@@H](CC(N)=O)C(=O)N[C@@H](CC(=O)O)C(=O)N[C@@H](Cc1c[nH]c2ccccc12)C(=O)N[C@@H](CCCCN)C(=O)N[C@@H](Cc1c[nH]cn1)C(=O)N[C@@H](CC(N)=O)C(=O)N[C@H](C(=O)NC1(C(=O)N[C@@H](CCC(N)=O)C(=O)O)CCCC1)[C@@H](C)CC)C(C)C` [Example 34, (3-Pal^1, Aib^2, A5c^11, 41)hGIP(1-42)-OH] were 9.75 nM, over 63 h and 16.3 h.
On the same counts, the results for `CCCC[C@H](NC(=O)[C@H](C)NC(=O)[C@@H](NC(=O)[C@H](CO)NC(=O)[C@H](Cc1ccc(O)cc1)NC(=O)[C@H](CC(=O)O)NC(=O)[C@H](CO)NC(=O)[C@@H](NC(=O)[C@H](Cc1ccccc1)NC(=O)[C@@H](NC(=O)CNC(=O)[C@H](CCC(=O)O)NC(=O)C(C)(C)NC(=O)CCc1ccc(O)cc1)[C@@H](C)O)[C@@H](C)CC)[C@@H](C)CC)C(=O)N[C@@H](CC(=O)O)C(=O)N[C@@H](CCCCN)C(=O)N[C@H](C(=O)N[C@@H](Cc1c[nH]cn1)C(=O)N[C@@H](CCC(N)=O)C(=O)N[C@@H](CCC(N)=O)C(=O)N[C@@H](CC(=O)O)C(=O)N[C@@H](Cc1ccccc1)C(=O)N[C@H](C(=O)N[C@@H](CC(N)=O)C(=O)N[C@@H](Cc1c[nH]c2ccccc12)C(=O)N[C@@H](CC(C)C)C(=O)N[C@@H](CC(C)C)C(=O)N[C@@H](C)C(=O)N[C@@H](CCC(N)=O)C(=O)N[C@@H](CCCCN)C(N)=O)C(C)C)[C@@H](C)CC` [Example 5, (4Hppa^1, Aib^2, Nle^14)hGIP(1-30)-NH2] (Desaminotyrosyl-[Aib]EGTFISDYSIA[Nle]DKIHQQDFVNWLLAQK-NH2) are 2.95 nM, 50.6 h and 83.5 h.
`CCCC[C@H](NC(=O)[C@H](C)NC(=O)[C@@H](NC(=O)[C@H](CO)NC(=O)[C@H](Cc1ccc(O)cc1)NC(=O)[C@H](CC(=O)O)NC(=O)[C@H](CO)NC(=O)[C@@H](NC(=O)[C@H](Cc1ccccc1)NC(=O)[C@@H](NC(=O)CNC(=O)[C@@H]1CCCN1C(=O)C(C)(C)NC(=O)CCc1ccc(O)cc1)[C@@H](C)O)[C@@H](C)CC)[C@@H](C)CC)C(=O)N[C@@H](CC(=O)O)C(=O)N[C@@H](CCCCN)C(=O)N[C@H](C(=O)N[C@@H](Cc1c[nH]cn1)C(=O)N[C@@H](CCC(N)=O)C(=O)N[C@@H](CCC(N)=O)C(=O)N[C@@H](CC(=O)O)C(=O)N[C@@H](Cc1ccccc1)C(=O)N[C@H](C(=O)N[C@@H](CC(N)=O)C(=O)N[C@@H](Cc1c[nH]c2ccccc12)C(=O)N[C@@H](CC(C)C)C(=O)N[C@@H](CC(C)C)C(=O)N[C@@H](C)C(=O)N[C@@H](CCC(N)=O)C(=O)N[C@@H](CCCCN)C(N)=O)C(C)C)[C@@H](C)CC` [Example 9, (4Hppa^1, Aib^2, hPro^3, Nle^14)hGIP(1-30)-NH2] (Desaminotyrosyl-[Aib]PGTFISDYSIA[Nle]DKIHQQDFVNWLLAQK-NH2): the figures for the half-life in data set [2] and in data set [3] were 26.5 h and 14 h, respectively.
Regarding “[Tyr(3-OMe)][Aib]EGTFISDY[Ac5c]IA[Ac5c]DKIHQQDFVNWLLAQKGKKNDWKHNI[Ac5c]QH-OH [Example 75, (3MeO-Tyr^1, Aib^2, A5c^11, 14, His^43)hGIP(1-43)-OH]”, the half-life was over 60 h in data set [2] and 18.6 h in data set [3].
